We go through 2 compounds from ChEMBL document CHEMBL5212743, “Selectivity Literature for EUbOPEN Chemogenomics Library wave 3” (2023).

By Ki is commonly meant the dissociation constant of the complex between target and ligand, obtained from inhibition or displacement. A low value points to tighter binding.

Data set [1] deals with T1, Gamma-aminobutyric acid receptor subunit alpha-1 (Homo sapiens, UniProt P14867).
T1 sequence (P14867 whole entry): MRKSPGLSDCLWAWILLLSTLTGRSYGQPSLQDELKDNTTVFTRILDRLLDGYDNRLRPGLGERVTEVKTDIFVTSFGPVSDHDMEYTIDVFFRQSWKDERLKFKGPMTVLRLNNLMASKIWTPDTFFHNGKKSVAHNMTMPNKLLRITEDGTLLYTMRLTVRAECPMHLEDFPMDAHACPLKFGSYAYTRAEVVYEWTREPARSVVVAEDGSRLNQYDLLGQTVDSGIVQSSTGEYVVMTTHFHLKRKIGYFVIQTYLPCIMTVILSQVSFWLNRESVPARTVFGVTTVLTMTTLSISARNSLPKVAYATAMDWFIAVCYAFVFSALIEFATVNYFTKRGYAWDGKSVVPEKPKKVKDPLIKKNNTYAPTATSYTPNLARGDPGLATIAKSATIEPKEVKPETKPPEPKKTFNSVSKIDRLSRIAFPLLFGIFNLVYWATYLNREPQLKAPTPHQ
The experiment in a line: Selectivity interaction (GPCR panel (PDSP screen)) EUB0000264b GABRA1.

In data set [2] the target is T2, Myosin-IIIb (Homo sapiens) (UniProt Q8WXR4).
T2 sequence (whole entry): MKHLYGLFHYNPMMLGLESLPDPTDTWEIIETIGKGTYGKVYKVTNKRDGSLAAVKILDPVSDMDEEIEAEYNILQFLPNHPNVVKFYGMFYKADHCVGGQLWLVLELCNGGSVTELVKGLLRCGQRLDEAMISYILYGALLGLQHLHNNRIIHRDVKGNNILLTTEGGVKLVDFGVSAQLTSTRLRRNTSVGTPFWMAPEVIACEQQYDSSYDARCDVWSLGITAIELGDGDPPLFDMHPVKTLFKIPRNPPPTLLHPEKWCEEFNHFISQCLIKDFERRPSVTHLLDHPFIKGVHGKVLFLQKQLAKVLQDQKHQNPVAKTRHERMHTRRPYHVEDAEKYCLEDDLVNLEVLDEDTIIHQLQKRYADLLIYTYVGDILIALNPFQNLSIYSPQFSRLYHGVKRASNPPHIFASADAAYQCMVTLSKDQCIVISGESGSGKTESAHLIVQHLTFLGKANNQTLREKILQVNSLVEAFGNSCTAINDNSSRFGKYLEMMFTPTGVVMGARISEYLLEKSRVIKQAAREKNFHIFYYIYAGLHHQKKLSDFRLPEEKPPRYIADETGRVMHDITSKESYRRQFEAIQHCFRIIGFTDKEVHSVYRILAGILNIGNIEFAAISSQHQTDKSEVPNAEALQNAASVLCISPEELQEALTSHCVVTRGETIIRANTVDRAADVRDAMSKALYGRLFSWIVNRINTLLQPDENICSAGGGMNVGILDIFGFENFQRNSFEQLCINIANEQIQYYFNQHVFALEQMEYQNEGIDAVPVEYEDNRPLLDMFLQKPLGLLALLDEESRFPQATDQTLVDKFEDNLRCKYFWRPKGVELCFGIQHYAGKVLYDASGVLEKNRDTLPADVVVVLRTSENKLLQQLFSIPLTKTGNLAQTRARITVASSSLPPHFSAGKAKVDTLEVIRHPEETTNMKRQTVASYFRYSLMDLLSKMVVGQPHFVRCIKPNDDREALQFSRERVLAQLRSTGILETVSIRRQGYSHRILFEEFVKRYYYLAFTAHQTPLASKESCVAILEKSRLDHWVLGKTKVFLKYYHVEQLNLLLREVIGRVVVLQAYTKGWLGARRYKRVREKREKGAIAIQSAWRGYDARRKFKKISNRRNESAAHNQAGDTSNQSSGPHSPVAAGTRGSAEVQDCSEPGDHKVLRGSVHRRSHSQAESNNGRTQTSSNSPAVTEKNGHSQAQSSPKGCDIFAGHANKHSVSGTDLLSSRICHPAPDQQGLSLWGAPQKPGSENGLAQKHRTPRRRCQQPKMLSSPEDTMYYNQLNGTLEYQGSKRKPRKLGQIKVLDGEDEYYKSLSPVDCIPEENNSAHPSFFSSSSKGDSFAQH
Description: Selectivity interaction (KinomeScan (DiscoverX)) EUB0000264b MYO3B. To be noted: at 10 µM.

The target of data set [3] is Serine/threonine-protein kinase PRP4 homolog (Homo sapiens) (UniProt Q13523). The experiment in a line: Selectivity interaction (KinomeScan (DiscoverX)) EUB0000264b PRPF4B. The settings on record: at 10 µM.
The target of data set [4] is Urotensin-2 receptor (Homo sapiens) (UniProt Q9UKP6). Description: Selectivity interaction (Enzyme panel (Eurofins-Cerep)) EUB0000262b UTS2R. The settings on record: at 10 µM.
In data set [5] the target is T3, Adenosine receptor A3 (Homo sapiens) (UniProt P0DMS8).
T3 sequence (whole entry): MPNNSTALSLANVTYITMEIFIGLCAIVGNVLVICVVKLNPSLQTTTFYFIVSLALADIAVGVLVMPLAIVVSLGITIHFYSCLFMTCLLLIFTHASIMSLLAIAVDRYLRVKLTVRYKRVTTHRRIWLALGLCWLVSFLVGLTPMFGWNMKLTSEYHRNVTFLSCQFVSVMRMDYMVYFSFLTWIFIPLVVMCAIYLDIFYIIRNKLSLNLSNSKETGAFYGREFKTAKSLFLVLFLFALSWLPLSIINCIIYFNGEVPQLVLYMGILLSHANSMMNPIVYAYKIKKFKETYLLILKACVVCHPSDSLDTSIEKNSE
The experiment in a line: Selectivity interaction (CEREP panel (Eurofins, binding assay)) EUB0000262b ADORA3. To be noted: at 10 µM.

Data set [6] has as its target Peroxisome proliferator-activated receptor gamma (Homo sapiens) (UniProt P37231). Description: Selectivity interaction (CEREP panel (Eurofins, binding assay)) EUB0000262b PPARG. To be noted: at 10 µM.
In data set [7] the target is T4, Histamine H1 receptor (Homo sapiens, UniProt P35367). The experiment in a line: Selectivity interaction (Enzyme panel (Eurofins-Cerep)) EUB0000262b HRH1. The settings on record: at 10 µM.
Data set [8] has as its target MAP/microtubule affinity-regulating kinase 3 (Homo sapiens) (UniProt P27448). Description: Selectivity interaction (KinomeScan (DiscoverX)) EUB0000262b MARK3. The settings on record: at 1 µM.
Data set [9] addresses T1, Gamma-aminobutyric acid receptor subunit alpha-1. The experiment in a line: Selectivity interaction (GPCR panel (PDSP screen)) EUB0000262b GABRA1.
Data set [10] has as its target Delta-type opioid receptor (Homo sapiens) (UniProt P41143). Description: Selectivity interaction (Enzyme panel (Eurofins-Cerep)) EUB0000262b OPRD1. To be noted: at 10 µM.
Data set [11] has as its target T5, Prostaglandin G/H synthase 2 (Homo sapiens) (UniProt P35354).
T5 sequence (whole entry): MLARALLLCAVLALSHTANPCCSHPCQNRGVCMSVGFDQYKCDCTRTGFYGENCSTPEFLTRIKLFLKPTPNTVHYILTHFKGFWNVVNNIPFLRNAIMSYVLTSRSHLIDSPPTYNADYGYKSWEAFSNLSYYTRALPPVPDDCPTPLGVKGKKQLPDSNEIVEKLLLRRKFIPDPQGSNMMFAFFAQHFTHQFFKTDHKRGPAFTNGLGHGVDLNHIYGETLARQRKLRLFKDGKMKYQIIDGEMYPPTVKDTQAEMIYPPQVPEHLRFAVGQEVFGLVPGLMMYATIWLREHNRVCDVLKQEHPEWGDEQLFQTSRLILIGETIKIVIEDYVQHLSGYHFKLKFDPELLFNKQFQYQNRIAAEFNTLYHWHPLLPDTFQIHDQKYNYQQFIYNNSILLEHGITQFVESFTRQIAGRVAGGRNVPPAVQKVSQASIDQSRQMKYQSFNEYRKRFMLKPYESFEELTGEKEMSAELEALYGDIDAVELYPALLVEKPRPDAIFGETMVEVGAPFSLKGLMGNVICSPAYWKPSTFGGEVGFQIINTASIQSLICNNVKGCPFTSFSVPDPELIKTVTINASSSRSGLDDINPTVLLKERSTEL
Description: Selectivity interaction (CEREP panel (Eurofins, binding assay)) EUB0000262b PTGS2. To be noted: at 10 µM.

Data set [12] addresses T6, Amine oxidase [flavin-containing] A (Homo sapiens, UniProt P21397). Description: Selectivity interaction (CEREP panel (Eurofins, binding assay)) EUB0000262b MAOA. The settings on record: at 10 µM.
Data set [13] concerns the target T7, Aurora kinase C (Homo sapiens) (UniProt Q9UQB9).
T7 sequence (whole entry): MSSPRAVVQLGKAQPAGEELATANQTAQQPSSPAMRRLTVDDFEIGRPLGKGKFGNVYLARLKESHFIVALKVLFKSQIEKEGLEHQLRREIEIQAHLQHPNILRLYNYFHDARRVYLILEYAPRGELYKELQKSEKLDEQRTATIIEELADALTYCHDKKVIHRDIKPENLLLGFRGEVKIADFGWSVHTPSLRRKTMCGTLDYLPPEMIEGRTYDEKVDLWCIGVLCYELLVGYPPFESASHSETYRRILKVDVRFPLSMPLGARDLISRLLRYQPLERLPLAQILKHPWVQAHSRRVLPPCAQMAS
The experiment in a line: Selectivity interaction (KinomeScan (DiscoverX)) EUB0000262b AURKC. The settings on record: at 1 µM.

For data set [14], the target named is T3, Adenosine receptor A3 (Homo sapiens). Description: Selectivity interaction (Enzyme panel (Eurofins-Cerep)) EUB0000262b ADORA3. The settings on record: at 10 µM.
Data set [15] deals with Urotensin-2 receptor (Homo sapiens) (UniProt Q9UKP6). Description: Selectivity interaction (CEREP panel (Eurofins, binding assay)) EUB0000262b UTS2R. To be noted: at 10 µM.
In data set [16] the target is T5, Prostaglandin G/H synthase 2 (Homo sapiens). The experiment in a line: Selectivity interaction (Enzyme panel (Eurofins-Cerep)) EUB0000262b PTGS2. To be noted: at 10 µM.
Data set [17] deals with Cholecystokinin receptor type A (Homo sapiens) (UniProt P32238). Description: Selectivity interaction (Enzyme panel (Eurofins-Cerep)) EUB0000262b CCKAR. The settings on record: at 10 µM.
Data set [18] addresses T4, Histamine H1 receptor. The experiment in a line: Selectivity interaction (CEREP panel (Eurofins, binding assay)) EUB0000262b HRH1. To be noted: at 10 µM.
The target of data set [19] is Cholecystokinin receptor type A (Homo sapiens) (UniProt P32238). The experiment in a line: Selectivity interaction (CEREP panel (Eurofins, binding assay)) EUB0000262b CCKAR. To be noted: at 10 µM.
Data set [20] concerns the target Delta-type opioid receptor (Homo sapiens) (UniProt P41143). The experiment in a line: Selectivity interaction (CEREP panel (Eurofins, binding assay)) EUB0000262b OPRD1. The settings on record: at 10 µM.
Data set [21] has as its target T6, Amine oxidase [flavin-containing] A. Description: Selectivity interaction (Enzyme panel (Eurofins-Cerep)) EUB0000262b MAOA. The settings on record: at 10 µM.
Data set [22] deals with Peroxisome proliferator-activated receptor gamma (Homo sapiens) (UniProt P37231). Description: Selectivity interaction (Enzyme panel (Eurofins-Cerep)) EUB0000262b PPARG. To be noted: at 10 µM.
Sequence of Peroxisome proliferator-activated receptor gamma (Homo sapiens) (P37231 whole entry): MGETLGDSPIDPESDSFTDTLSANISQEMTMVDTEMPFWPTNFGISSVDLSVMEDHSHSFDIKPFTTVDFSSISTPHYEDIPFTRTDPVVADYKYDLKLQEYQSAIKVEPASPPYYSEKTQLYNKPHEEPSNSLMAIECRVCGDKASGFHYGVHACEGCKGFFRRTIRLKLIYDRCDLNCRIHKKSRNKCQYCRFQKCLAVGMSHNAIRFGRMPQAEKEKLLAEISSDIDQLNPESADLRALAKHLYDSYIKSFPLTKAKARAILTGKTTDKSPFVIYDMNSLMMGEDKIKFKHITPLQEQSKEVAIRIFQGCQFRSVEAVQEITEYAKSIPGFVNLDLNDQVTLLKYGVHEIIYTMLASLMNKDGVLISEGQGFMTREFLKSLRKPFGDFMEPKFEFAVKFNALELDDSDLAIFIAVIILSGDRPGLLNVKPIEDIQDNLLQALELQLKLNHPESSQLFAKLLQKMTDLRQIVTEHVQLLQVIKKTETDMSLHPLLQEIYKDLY

T4 sequence (P35367 whole entry): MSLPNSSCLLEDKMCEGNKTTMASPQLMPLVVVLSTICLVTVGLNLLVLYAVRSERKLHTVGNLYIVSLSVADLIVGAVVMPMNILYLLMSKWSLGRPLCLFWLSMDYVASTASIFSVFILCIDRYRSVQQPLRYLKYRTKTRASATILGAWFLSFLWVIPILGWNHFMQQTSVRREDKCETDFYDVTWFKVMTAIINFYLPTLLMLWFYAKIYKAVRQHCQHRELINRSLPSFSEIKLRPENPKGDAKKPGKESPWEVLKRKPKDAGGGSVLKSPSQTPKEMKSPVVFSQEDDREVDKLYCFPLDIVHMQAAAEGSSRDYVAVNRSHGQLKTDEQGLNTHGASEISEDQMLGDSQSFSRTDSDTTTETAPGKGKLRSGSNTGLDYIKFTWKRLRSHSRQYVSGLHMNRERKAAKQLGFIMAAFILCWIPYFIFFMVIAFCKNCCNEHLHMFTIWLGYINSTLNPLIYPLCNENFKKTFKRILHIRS
T6 sequence (P21397 whole entry): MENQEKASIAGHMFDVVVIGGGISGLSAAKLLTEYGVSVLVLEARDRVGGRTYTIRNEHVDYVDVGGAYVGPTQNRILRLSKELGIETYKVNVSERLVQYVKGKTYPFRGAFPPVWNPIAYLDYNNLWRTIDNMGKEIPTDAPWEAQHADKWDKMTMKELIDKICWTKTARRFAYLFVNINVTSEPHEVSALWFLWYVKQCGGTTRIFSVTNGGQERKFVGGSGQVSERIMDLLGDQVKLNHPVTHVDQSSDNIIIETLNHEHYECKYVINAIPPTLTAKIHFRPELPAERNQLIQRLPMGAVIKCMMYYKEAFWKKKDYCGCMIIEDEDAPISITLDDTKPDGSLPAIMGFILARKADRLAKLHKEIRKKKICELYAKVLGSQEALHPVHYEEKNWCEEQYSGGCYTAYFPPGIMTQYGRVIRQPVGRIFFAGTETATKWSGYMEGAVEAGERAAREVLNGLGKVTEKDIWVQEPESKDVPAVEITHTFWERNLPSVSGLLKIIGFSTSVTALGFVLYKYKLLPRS
Sequence of Urotensin-2 receptor (Homo sapiens) (Q9UKP6 whole entry): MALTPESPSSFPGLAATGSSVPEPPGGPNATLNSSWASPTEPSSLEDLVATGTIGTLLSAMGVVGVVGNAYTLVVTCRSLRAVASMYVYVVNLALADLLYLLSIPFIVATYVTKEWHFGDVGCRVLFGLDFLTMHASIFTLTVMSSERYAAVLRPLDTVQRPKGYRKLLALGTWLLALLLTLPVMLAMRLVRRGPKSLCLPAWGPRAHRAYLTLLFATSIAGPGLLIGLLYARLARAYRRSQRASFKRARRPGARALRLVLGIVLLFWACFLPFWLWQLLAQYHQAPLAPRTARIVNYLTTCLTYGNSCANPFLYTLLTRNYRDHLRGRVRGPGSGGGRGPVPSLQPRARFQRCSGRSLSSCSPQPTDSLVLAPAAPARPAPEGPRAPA
Sequence of Delta-type opioid receptor (Homo sapiens) (P41143 whole entry): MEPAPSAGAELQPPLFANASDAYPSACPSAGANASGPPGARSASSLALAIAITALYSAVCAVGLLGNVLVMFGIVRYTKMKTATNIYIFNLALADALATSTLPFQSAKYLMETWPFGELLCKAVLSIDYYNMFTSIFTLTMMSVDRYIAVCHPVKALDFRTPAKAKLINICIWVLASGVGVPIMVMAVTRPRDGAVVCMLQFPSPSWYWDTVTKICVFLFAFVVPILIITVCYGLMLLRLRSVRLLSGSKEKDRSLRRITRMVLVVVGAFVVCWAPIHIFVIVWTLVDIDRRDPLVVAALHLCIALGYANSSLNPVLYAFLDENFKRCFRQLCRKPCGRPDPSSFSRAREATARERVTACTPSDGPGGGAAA
Sequence of Cholecystokinin receptor type A (Homo sapiens) (P32238 whole entry): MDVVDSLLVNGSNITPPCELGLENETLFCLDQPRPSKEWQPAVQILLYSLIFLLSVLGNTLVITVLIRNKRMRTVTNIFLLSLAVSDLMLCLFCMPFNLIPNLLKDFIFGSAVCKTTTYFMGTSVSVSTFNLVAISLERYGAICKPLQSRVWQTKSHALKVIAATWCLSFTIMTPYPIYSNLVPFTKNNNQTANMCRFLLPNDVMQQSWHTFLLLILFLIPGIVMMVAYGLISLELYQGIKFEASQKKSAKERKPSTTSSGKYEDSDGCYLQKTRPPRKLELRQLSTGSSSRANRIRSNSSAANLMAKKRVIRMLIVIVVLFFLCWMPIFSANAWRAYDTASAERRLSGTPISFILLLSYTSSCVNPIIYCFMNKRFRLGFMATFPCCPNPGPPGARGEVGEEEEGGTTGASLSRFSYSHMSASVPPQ
Sequence of Serine/threonine-protein kinase PRP4 homolog (Homo sapiens) (Q13523 whole entry): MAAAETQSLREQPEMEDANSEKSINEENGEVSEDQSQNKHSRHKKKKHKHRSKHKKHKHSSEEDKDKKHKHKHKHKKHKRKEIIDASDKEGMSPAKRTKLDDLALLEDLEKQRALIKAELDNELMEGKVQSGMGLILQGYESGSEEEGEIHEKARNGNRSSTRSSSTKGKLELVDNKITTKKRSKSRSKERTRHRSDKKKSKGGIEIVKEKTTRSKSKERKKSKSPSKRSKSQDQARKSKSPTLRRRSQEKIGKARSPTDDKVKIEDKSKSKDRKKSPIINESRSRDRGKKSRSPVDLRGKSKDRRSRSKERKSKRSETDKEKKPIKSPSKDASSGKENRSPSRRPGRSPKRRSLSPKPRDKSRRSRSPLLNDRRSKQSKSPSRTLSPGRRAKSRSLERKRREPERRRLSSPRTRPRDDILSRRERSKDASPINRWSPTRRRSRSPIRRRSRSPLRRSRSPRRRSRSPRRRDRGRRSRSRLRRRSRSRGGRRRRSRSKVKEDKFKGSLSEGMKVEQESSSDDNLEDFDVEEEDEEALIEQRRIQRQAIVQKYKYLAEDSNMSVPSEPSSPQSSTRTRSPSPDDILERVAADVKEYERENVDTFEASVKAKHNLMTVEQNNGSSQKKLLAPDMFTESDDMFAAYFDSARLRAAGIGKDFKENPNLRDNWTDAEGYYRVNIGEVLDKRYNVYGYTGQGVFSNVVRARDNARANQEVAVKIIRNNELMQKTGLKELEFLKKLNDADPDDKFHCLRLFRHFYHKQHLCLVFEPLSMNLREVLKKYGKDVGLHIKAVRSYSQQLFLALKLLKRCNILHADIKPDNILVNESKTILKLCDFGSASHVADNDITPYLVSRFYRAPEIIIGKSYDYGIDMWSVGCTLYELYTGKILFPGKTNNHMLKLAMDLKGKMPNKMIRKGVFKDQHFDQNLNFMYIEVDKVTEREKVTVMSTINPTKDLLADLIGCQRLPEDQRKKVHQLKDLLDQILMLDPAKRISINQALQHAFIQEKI
Sequence of MAP/microtubule affinity-regulating kinase 3 (Homo sapiens) (P27448 whole entry, looked up): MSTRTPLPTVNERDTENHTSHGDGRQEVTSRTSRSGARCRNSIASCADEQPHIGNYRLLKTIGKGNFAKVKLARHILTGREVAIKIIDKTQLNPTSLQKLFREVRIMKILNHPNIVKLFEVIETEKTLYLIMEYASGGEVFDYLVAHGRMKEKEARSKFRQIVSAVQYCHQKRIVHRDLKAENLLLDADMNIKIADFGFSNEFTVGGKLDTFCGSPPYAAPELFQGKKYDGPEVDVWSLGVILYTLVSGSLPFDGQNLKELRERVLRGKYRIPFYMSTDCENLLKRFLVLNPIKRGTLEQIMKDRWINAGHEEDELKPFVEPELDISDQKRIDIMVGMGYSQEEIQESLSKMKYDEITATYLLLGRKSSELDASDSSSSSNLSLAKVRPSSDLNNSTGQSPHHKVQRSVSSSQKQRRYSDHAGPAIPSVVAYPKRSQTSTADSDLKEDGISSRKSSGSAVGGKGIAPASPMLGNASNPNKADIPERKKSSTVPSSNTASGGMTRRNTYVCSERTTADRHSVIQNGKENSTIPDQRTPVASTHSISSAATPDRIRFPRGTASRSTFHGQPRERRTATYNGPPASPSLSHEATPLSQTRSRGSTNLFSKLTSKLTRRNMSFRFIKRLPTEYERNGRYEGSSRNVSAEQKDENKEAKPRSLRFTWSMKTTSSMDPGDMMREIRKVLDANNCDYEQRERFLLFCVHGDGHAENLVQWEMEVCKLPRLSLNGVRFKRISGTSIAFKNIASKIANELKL

For the compound `COc1ccc2c(c1)O[C@H](c1ccc(OC)c(OC)c1)C[C@@H]2NC(=O)C1(c2ccc3c(c2)OC(F)(F)O3)CC1` [A-1596584], the Ki in data set [1] was found to be 0.218 µM. Further, the values for the % of control in [2] and in data set [3] were 39% and 56%, respectively.
On to `CN(C)CC#Cc1ccc(OCCCc2sc(N3CCc4cccc(C(=O)Nc5nc6ccccc6s5)c4C3)nc2C(=O)O)c(F)c1` [A-1155463], for which the % of inhibition in data set [4] was 94.9%; in data set [5], 71.6%; in [6], 99.1%; in [7], 69.2%; in [10], 77.9%; in data set [11], 62.2%. The “% of inhibition” value came to 74.5% in data set [12]; 71.6% in data set [14]; 94.9% in data set [15]; 62.2% in data set [16]; 98.9% in data set [17]; 69.2% in data set [18]. The % of inhibition amounted to 98.9% in [19], 77.9% in data set [20], 74.5% in data set [21] and 99.1% in data set [22]. Besides, the % of control is 38% in data set [8] and 9% in data set [13]. This compound also gave a Ki in data set [9] of 0.794 µM.
